Values of other authors, collected in patent US20120237592A1, “ENDOPLASMIC RETICULUM TARGETING LIPOSOMES” (priority 2008, published 2012).

Tests used:
HIV-1 = HIV-1 infected patients, literature
BVDV = details: literature
HBV = details: literature
HIV = details: literature

CCCCN1C[C@H](O)[C@@H](O)[C@H](O)[C@H]1CO [NB-DNJ, N-butyl-1,5-dideoxy-1,5-imino-D-glucitol]
tolerability at concentrations necessary for antiviral activity (HIV-1): serious side-effects
infectivity of BVDV viral progeny (BVDV): decreased infectivity of viral progeny
secretion of HBV particles (HBV): suppresses secretion of HBV particles
infectious virus released from HIV-infected cells (HIV): greatly reduced
